Laboratory results: article PMC6904362, “Omeprazole Treatment Enhances Nitrogen Use Efficiency Through Increased Nitrogen Uptake and Assimilation in Corn” (Frontiers in Plant Science, 2019)

Tested on: T1, purified NADH-Nitrate Reductase (NR) from Arabidopsis thaliana
T1 construct: gene NIA2; commercial Arabidopsis NR is probably recombinant NIA2
Experiment: NR activity assay, nitrite detection (sulphanilamide/NED, […] nm), nonlinear regression
Type: biochemical
Conditions: 0.8 mM NADH, 50 mM Hepes/KOH pH 7.5, FAD, Na2MoO4; nitrate 0.08-1.5 mM; no omeprazole

Km: 408 µM
Compound: O=[N+]([O-])O [NO3 ^-, nitrate]
